US20070082920A1, “NAD+-dependent DNA ligase inhibitors” (priority 2005, published 2007)

Experiments:
[1] = system: Staphylococcus aureus ATCC 29213; experiment: MIC, broth microdilution (CLSI), S. aureus; format: cell-based; details: lowest concentration inhibiting visual growth
Procedure: (§1) The compounds of Formulas 1-VIII were evaluated as inhibitors of NAD+-dependent DNA ligase inhibitors. Their antimicrobial activity was evaluated against bacteria using the broth microdilution method as described by Clinical Laboratory Standards Institute (formerly NCCLS). Activity was assessed against the following bacterial strains: Staphylococcus aureus ATCC 29213, Streptococcus pneumoniae ATCC 49619, Escherichia coli ATCC 25922, E. coli CGSC 5633 (ToIC mutant), Haemophilus influenzae ATCC 49766, Streptococcus pyogenes ATCC 19615, Moraxella catterhalis ATCC 25238, Enterococcus faecalis ATCC 29212. The lowest concentration of compound which inhibited visual growth of each bacterium, the minimum inhibitory concentration (MIC), was determined.

[2] = system: Streptococcus pneumoniae ATCC 49619; experiment: MIC, broth microdilution (CLSI), S. pneumoniae; format: cell-based
Procedure: as §1

[3] = system: Escherichia coli ATCC 25922; experiment: MIC, broth microdilution (CLSI), E. coli ATCC 25922; format: cell-based; set-up: unit not given here
Procedure: as §1

[4] = system: E. coli CGSC 5633 (ToIC mutant); experiment: MIC, broth microdilution (CLSI), E. coli CGSC 5633; format: cell-based, Escherichia coli; set-up: unit not given beside the values
Procedure: as §1

[5] = system: Enterococcus faecalis ATCC 29212; experiment: MIC, broth microdilution (CLSI), E. faecalis; format: cell-based; set-up: unit not given here
Procedure: as §1

[6] = system: Haemophilus influenzae ATCC 49766; experiment: MIC, broth microdilution (CLSI), H. influenzae; format: cell-based; set-up: unit not given beside the values
Procedure: as §1

[7] = system: Moraxella catterhalis ATCC 25238; experiment: MIC, broth microdilution (CLSI), M. catarrhalis; format: cell-based
Procedure: as §1

[8] = system: Streptococcus pyogenes ATCC 19615; experiment: MIC, broth microdilution (CLSI), S. pyogenes; format: cell-based
Procedure: as §1

[9] = Acute toxicity, Alamar blue cell viability, HepG2; format: cell-based; details: human
Procedure: (§2) Acute toxicity was assessed against two mammalian cell lines, HepG2 (human hepatocyte) and NIH 3T3 (mouse fibroblast). Cell viability was measured by an in vitro assay using Alamar blue. The concentration of compound which inhibited 50% of the cell growth (LC50) was determined.

[10] = Acute toxicity, Alamar blue cell viability, NIH 3T3; format: cell-based; details: mouse
Procedure: as §2

SMILES	MIC S. aureus ATCC 29213 [1]	MIC S. pneumoniae [2]	MIC E. coli ATCC 25922 [3]	MIC E. coli CGSC 5633 [4]	MIC E. faecalis [5]	MIC H. influenzae [6]	MIC M. catarrhalis [7]	MIC S. pyogenes [8]	CC50 [9]	CC50 [10]	CC50 ([9]; HepG2 cells, Alamar blue, 50% inhibition of cell growth, read-out: Acute Tox LC50 μM/ HepG2)	CC50 ([10]; NIH 3T3 cells, Alamar blue, 50% inhibition of cell growth, read-out: Acute Tox LC50 μM/ NIH-3T3)
COc1cc(CN(C)c2cc(C)c3c(N)nc(N)nc3n2)cc(OC)c1 [IV-c]	32	0.5	16	<0.125	0.5	32	1	8	37.4 µM	14.6 µM	–	–
Cc1cc(NCc2ccc(C(F)(F)F)cc2F)nc2nc(N)nc(N)c12 [III-h]	16	4	16	0.5	4	16	4	4	–	–	–	–
COc1cc(CN(C)c2nc3nc(N)nc(N)c3c(C)c2C2CCCC2)cc(OC)c1 [II-h]	4	0.5	32	<0.125	<0.125	4	1	1	17.5 µM	3.26 µM	–	–
Cc1cc(NCc2ccc(Cl)c(C(F)(F)F)c2)nc2nc(N)nc(N)c12 [III-f]	8	1	16	<0.125	1	16	2	2	15.2 µM	8.32 µM	–	–
Cc1cc(NCc2cc(C(F)(F)F)ccc2F)nc2nc(N)nc(N)c12 [III-k]	16	2	32	–	0.5	32	16	16	–	–	–	–
Cc1cc(N2CCCc3ccccc32)nc2nc(N)nc(N)c12 [V-a]	32	8	64	<0.125	<0.125	16	16	32	27.1 µM	11.5 µM	–	–
COc1cc(CN(C)c2nc3nc(N)nc(N)c3c3c2CCCC3)cc(OC)c1 [VII-e]	32	0.5	64	1	<0.1250	16	4	2	–	–	–	–
Cc1cc(NCc2cccc(C(F)(F)F)c2F)nc2nc(N)nc(N)c12 [III-g]	16	2	16	0.5	2	32	4	4	–	–	–	–
CCCCc1c(NCc2ccc(F)c(F)c2)nc2nc(N)nc(N)c2c1C [II-d]	4	1	32	<0.125	2	16	2	2	17.2 µM	5.16 µM	–	–
Cc1cc(NCc2cc(C(F)(F)F)cc(C(F)(F)F)c2)nc2nc(N)nc(N)c12 [III-d]	16	2	16	1	1	16	4	2	19.5 µM	7.72 µM	–	–
Cc1cc(NCc2cc(F)cc(C(F)(F)F)c2)nc2nc([N+](=O)[O-])nc([N+](=O)[O-])c12 [VIII-b]	8	8	64	2	4	64	4	4	–	–	> 16.4 µM	12.1 µM
Cc1cc(NCc2ccc(C(F)(F)F)cc2)nc2nc(N)nc(N)c12 [III-c]	16	4	16	0.25	4	16	8	4	22.8 µM	11.2 µM	–	–
Cc1c(C2CCCC2)c(NCc2ccc(F)c(F)c2)nc2nc(N)nc(N)c12 [II-g]	4	4	>128	2	4	16	1	4	16.4 µM	2.67 µM	–	–
COc1cc(CN(C)c2nc3nc(N)nc(N)c3c(C)c2Cc2ccccc2)cc(OC)c1 [II-a, 2,4-diamino-5-methyl-6-benzyl-7-[(3,5-dimethoxybenzyl)methylamino]-pyrido[2,3-d]pyrimidine]	4	0.125	>128	<0.125	<0.125	>128	4	4	12.8 µM	5.57 µM	–	–
Cc1c(C(C)C)c(NCc2cc(F)cc(C(F)(F)F)c2)nc2nc(N)nc(N)c12 [II-f]	8	8	128	–	2	32	4	8	–	–	–	–
Cc1cc(NCc2ccc(F)cc2C(F)(F)F)nc2nc(N)nc(N)c12 [III-j]	16	1	32	0.25	1	16	4	4	–	–	–	–
COc1ccc(CN(C)c2cc(C)c3c(N)nc(N)nc3n2)cc1OC [IV-b]	64	2	64	0.125	–	16	8	–	> 28.2 µM	13.2 µM	–	–
Nc1nc(N)c2c3c(c(NCc4cc(F)cc(F)c4)nc2n1)CCCC3 [VII-d]	32	8	64	–	8	32	16	8	–	–	–	–
Nc1nc(N)c2c3c(c(N4Cc5ccccc5C4)nc2n1)CCCC3 [VII-c]	16	8	>128	–	1	>128	4	16	–	–	–	–
Cc1cc(NCc2ccc3c(c2)OCO3)nc2nc(N)nc(N)c12 [III-m]	64	2	64	0.5	2	8	16	8	–	–	–	–
